From publication PMC7824209, “Bioactive Bis(indole) Alkaloids from a Spongosorites sp. Sponge” (Marine Drugs, 2020)
Converted amounts (≈) assume the structure as drawn. Read-outs that look alike come from different tables or passages of the source.

Assays:
A549 cell line = assay: MTT cytotoxicity assay; assay type: cell-based; conditions: Homo sapiens
Procedure: (§1) An MTT assay was performed as previously described to determine the cytotoxicity against A549 and K562 cell lines. These cancer cell lines were purchased from the Korean Cell Line Bank (KCLB), Seoul, Republic of Korea.

K562 cell line = assay: MTT cytotoxicity assay; assay type: cell-based; conditions: Homo sapiens
Procedure: as §1

[1] = target: T1, recombinant SrtA from S. aureus ATCC6538p (Staphylococcus aureus, UniProt Q2FV99); assay: SrtA inhibition assay (fluorescence, dabcyl-LPETG-edans cleavage); assay type: biochemical
T1 construct: made in house; host or cells: Escherichia coli
Description: The same bioassays were pursued with the new compounds and the known congeners, with a particular emphasis on SrtA inhibition. The rationale of SrtA inhibition is that this transpeptidase decorates the surfaces of Gram-positive bacteria with a diverse array of proteins that enable microbes to effectively interact with their environment, and it is not required for bacterial growth or viability. It is thus considered a promising target for the development of anti-virulence drugs aimed at interfering with important virulence mechanisms such as adhesion to host tissues. To assess the SrtA inhibitory activity of compounds 1–14, recombinant SrtA derived from S. aureus ATCC6538p was purified from Escherichia coli extracts using metal chelate-affinity chromatography. The enzyme activity was determined from the fluorescence intensity upon cleavage of a peptide substrate containing the LPETG motif.
Before evaluating the SrtA inhibitory activity of the test compounds, recombinant SrtA from S. aureus ATCC6538p was prepared according to methods described in a previous paper. The SrtA inhibitory activity of the test compounds was determined according to previously described methods with minor modifications. The reaction was carried out with 100 μL buffer (50 mM Tris-HCl, 5 mM CaCl2, and 150 mM NaCl, pH 7.5), 7.5 µM synthetic peptide dabcyl-LPETG-edans (AnaSpec, Inc., Fremont, CA, USA), 7.5 µM purified SrtA, and test samples at various concentrations. […] The SrtA inhibition assay was conducted at 37 °C for 1 h, and inhibition was quantified fluorometrically using a microplate reader (FLx800, BioTek Instruments, Winooski, VT, USA) at excitation and emission wavelengths of 350 and 495 nm, respectively. Berberine chloride and triphasiol were used as reference inhibitors of SrtA.

[2] = tested on: Trichophyton rubrum NBRC9185; assay: Antifungal activity MIC; assay type: cell-based
[3] = tested on: Candida albicans ATCC10231; assay: Antifungal activity MIC; assay type: cell-based
S. aureus strain Newman = assay: Antibacterial activity MIC; assay type: cell-based; conditions: Staphylococcus aureus, read-out: Antibacterial Activity MIC, S. aureus
[4] = tested on: Salmonella enterica ATCC14028; assay: Antibacterial activity MIC; assay type: cell-based; conditions: ATCC14028, read-out: Antibacterial Activity MIC, Salmonella enterica
[5] = tested on: Enterococcus faecalis ATCC19433; assay: Antibacterial activity MIC; assay type: cell-based; conditions: ATCC19433, read-out: Antibacterial Activity MIC, Enterococcus faecalis
[6] = tested on: Aspergillus fumigatus HIC6094; assay: Antifungal activity MIC; assay type: cell-based
[7] = tested on: Enterococcus faecium ATCC19434; assay: Antibacterial activity MIC; assay type: cell-based; conditions: ATCC19434, read-out: Antibacterial Activity MIC, Enterococcus faecium
[8] = tested on: Klebsiella pneumoniae ATCC10031; assay: Antibacterial activity MIC; assay type: cell-based; conditions: ATCC10031, read-out: Antibacterial Activity MIC, Klebsiella pneumonia
[9] = tested on: Trichophyton mentagrophytes IFM40996; assay: Antifungal activity MIC; assay type: cell-based
[10] = tested on: Escherichia coli ATCC25922; assay: Antibacterial activity MIC; assay type: cell-based; conditions: Gram-negative; for MIC: Escherichia coli, read-out: Antibacterial Activity MIC, E. coli
[11] = MTT assay, A549, read-out: IC50 A549
[12] = MTT assay, K562, read-out: IC50 K562

T1 sequence (Q2FV99 whole entry): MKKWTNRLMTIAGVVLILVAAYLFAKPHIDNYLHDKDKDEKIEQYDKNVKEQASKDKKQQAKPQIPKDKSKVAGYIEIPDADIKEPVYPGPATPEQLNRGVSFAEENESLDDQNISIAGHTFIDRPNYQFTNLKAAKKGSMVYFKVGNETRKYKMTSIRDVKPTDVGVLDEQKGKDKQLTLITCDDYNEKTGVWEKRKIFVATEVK

Row | Compound | IC50 (A549 cell line; [11]) [µM] | IC50 (K562 cell line; [12]) [µM] | IC50 [1] [µM] | MIC [2] [µg/mL] | MIC [3] [µg/mL] | MIC (S. aureus strain Newman; Gram-positive, strain Newman) [µg/mL] | MIC ([4]; Gram-negative) [µg/mL] | MIC ([5]; Gram-positive) [µg/mL] | MIC [6] [µg/mL] | MIC ([7]; Gram-positive) [µg/mL] | MIC ([8]; Gram-negative) [µg/mL] | MIC [9] [µg/mL] | MIC [10] [µg/mL] | further results
1 | COc1cccc2c1C(=O)c1c(O)c3c(c(O)c1C2=O)C[C@@](O)(C(=O)CO)C[C@@H]3O[C@H]1C[C@H](N)[C@H](O)[C@H](C)O1 [doxorubicin, reference compound] | 0.64 | 0.92 |  |  |  |  |  |  |  |  |  |  |  | 
2 | O=C(c1ncc(-c2c[nH]c3ccccc23)[nH]1)c1c[nH]c2cc(Br)ccc12 [Compound 8, isobromodeoxytopsentin] |  |  | 41.3 |  |  |  |  |  |  |  |  |  |  | 
3 | O=C(c1ncc(-c2c[nH]c3cc(Br)ccc23)[nH]1)c1c[nH]c2ccccc12 [Compound 9, bromodeoxytopsentin] |  |  | 34 |  |  |  |  |  |  |  |  |  |  | 
4 | CO[C@@]1(C(=O)c2c[nH]c3cc(O)ccc23)N=C(c2c[nH]c3cc(Br)ccc23)C(=O)N1 [Compound 4, spongosoritin D] | 70.9 | 54.2 | > 275 | > 128 | > 128 | 16 (≈ 34.2 µM) | 64 (≈ 137 µM) | 128 (≈ 274 µM) | > 128 | 128 (≈ 274 µM) | > 128 | > 128 | > 128 | 
5 | CO[C@@]1(C(=O)c2c[nH]c3ccccc23)N=C(c2c[nH]c3ccccc23)C(=O)N1 [Compound 2, spongosoritin B] | 55.7 | 28.5 | 62.7 | > 128 | > 128 | 64 (≈ 172 µM) | 128 (≈ 344 µM) | > 128 | > 128 | > 128 | 128 (≈ 344 µM) | > 128 | > 128 | 
6 | O=C(NCC(=O)c1c[nH]c2ccccc12)NC(=O)c1c[nH]c2cc(O)ccc12 [Compound 5, spongocarbamide A] | > 100 | 92.8 | 79.4 | > 128 | > 128 | > 128 | > 128 | > 128 | > 128 | > 128 | > 128 | > 128 | > 128 | 
7 | CO[C@@]1(C(=O)c2c[nH]c3ccccc23)N=C(c2c[nH]c3cc(Br)ccc23)C(=O)N1 [Compound 3, spongosoritin C] | 61.2 | 37.7 | 43.9 | > 128 | > 128 | 32 (≈ 70.9 µM) | 64 (≈ 142 µM) | 128 (≈ 284 µM) | > 128 | > 128 | > 128 | > 128 | > 128 | 
8 | O=C1NC(c2c[nH]c3cc(Br)ccc23)CN=C1c1c[nH]c2ccccc12 (stereo in doubt) [Compound 11, (R)-6′′-debromohamacanthin A] | 39.6 | > 100 | 47.5 | > 128 | > 128 | 8 (≈ 19.6 µM) | 16 (≈ 39.3 µM) | 32 (≈ 78.6 µM) | > 128 | 32 (≈ 78.6 µM) | 8 (≈ 19.6 µM) | > 128 | > 128 | Antibacterial Activity MIC, E. coli [10]: >128 µg/mL
9 | COC(=O)c1c[nH]c2cc(O)ccc12 [Compound 14, 6-hydroxy-3-carbomethoxyindole] | 66.8 | > 100 | 191 | > 128 | > 128 | 128 (≈ 670 µM) | > 128 | > 128 | > 128 | > 128 | > 128 | > 128 | > 128 | 
10 | COc1ccc2cc3[n+](cc2c1OC)CCc1cc2c(cc1-3)OCO2 [berberine chloride, reference compound] |  |  | 87.4 |  |  |  |  |  |  |  |  |  |  | 
11 | O=C(c1nc(-c2c[nH]c3ccccc23)c[nH]1)c1c[nH]c2cc(O)ccc12 [Compound 7, topsentin] | 25.3 | 15.3 | > 374 | > 128 | > 128 | 32 (≈ 93.5 µM) | 64 (≈ 187 µM) | 64 (≈ 187 µM) | > 128 | 64 (≈ 187 µM) | 64 (≈ 187 µM) | > 128 | > 128 | Antibacterial Activity MIC, E. coli [10]: >128 µg/mL
12 | COC(=O)c1c[nH]c2ccccc12 [Compound 13, 3-carbomethoxyindole] | 59.2 | > 100 | 164 | > 128 | > 128 | 128 (≈ 731 µM) | > 128 | > 128 | > 128 | > 128 | > 128 | > 128 | > 128 | 
13 | O=C1NC[C@H](c2c[nH]c3cc(Br)ccc23)N[C@H]1c1c[nH]c2cc(Br)ccc12 [Compound 12, (3S, 5R)-6-dibromo-trans-3,4-dihydrohamacanthin B] |  |  | > 263 | > 128 | > 128 |  |  |  | > 128 |  |  | > 128 | > 128 | MIC (S. aureus strain Newman; NEWMAN): 8 µg/mL (≈ 16.4 µM); MIC [4]: 8 µg/mL (≈ 16.4 µM); MIC [5]: 16 µg/mL (≈ 32.8 µM); MIC [7]: > 128 µg/mL; MIC [8]: 8 µg/mL (≈ 16.4 µM); IC50 (A549 cell line; A549, read-out: IC50 A549): 34.3 µM; IC50 (K562 cell line; K562, read-out: IC50 K562): 9.7 µM; Antibacterial Activity MIC, E. coli [10]: >128 µg/mL
14 | CC1(C)S[C@@H]2[C@H](NC(=O)[C@H](N)c3ccccc3)C(=O)N2[C@H]1C(=O)O [ampicillin, reference compound] |  |  |  |  |  | 0.13 (≈ 0.372 µM) | 0.25 (≈ 0.715 µM) | 0.5 (≈ 1.43 µM) |  | 1 (≈ 2.86 µM) |  |  | 8 (≈ 22.9 µM) | 
15 | CN(C)[C@@H]1C(O)=C(C(N)=O)C(=O)[C@@]2(O)C(O)=C3C(=O)c4c(O)cccc4[C@@](C)(O)[C@H]3C[C@@H]12 [tetracycline, reference compound] |  |  |  |  |  |  |  |  |  |  | 0.25 (≈ 0.563 µM) |  |  | 
16 | CC(C)C(=O)Cc1c(OCC(O)C(C)(C)O)ccc2ccc(=O)oc12 (stereo not shown) [triphasiol, reference compound] |  |  |  |  |  |  |  |  |  |  |  |  |  | IC50 ([1]; 7.5 µM SrtA, 7.5 µM dabcyl-LPETG-edans, 37 °C, 1 h, pH 7.5, read-out: IC50 Srt A): 37.9 µM
17 | O=C(c1nc(-c2c[nH]c3cc(Br)ccc23)c[nH]1)c1c[nH]c2cc(O)ccc12 [Compound 10, bromotopsentin] | 38.9 | 43.2 | 53.2 | > 128 | > 128 | 8 (≈ 19 µM) | 16 (≈ 38 µM) | 32 (≈ 76 µM) | > 128 | 16 (≈ 38 µM) | 64 (≈ 152 µM) | > 128 | > 128 | Antibacterial Activity MIC, E. coli [10]: >128 µg/mL
18 | CO[C@@]1(C(=O)c2c[nH]c3cc(O)ccc23)N=C(c2c[nH]c3ccccc23)C(=O)N1 [Compound 1, spongosoritin A] | 77.3 | 24.2 | > 330 | > 128 | > 128 | > 128 | > 128 | > 128 | > 128 | > 128 | > 128 | > 128 | > 128 | 
19 | O=C(NCC(=O)c1c[nH]c2cc(Br)ccc12)NC(=O)c1c[nH]c2cc(O)ccc12 [Compound 6, spongocarbamide B] | > 100 | > 100 | 52.4 | > 128 | > 128 | 64 (≈ 141 µM) | 128 (≈ 281 µM) | > 128 | > 128 | > 128 | > 128 | > 128 | > 128 | 
